Source: patent US20060069132A1, “Azolecarboxamide herbicides” (priority 2004, published 2006)

Experiments:
[1] = test system: eastern black nightshade; test: Test C pre-/postemergence herbicide test; format: in vivo, Solanum ptycanthum; settings: for Plant response rating (0 = no effect, 100 = complete control), Nightshade: 62 g ai/ha; for Plant response rating (0 = no effect, 100 = complete control), Nightshade / Plant response rating, Nightshade: preemergence; for Nightshade plant response rating: Preemergence, 500 g ai/ha, scale 0 to 100, 0 no effect, 100 complete control
Procedure, shortened: (§1)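 Pre- and postemergence application, solvent/surfactant formulation; post at 1- to 4-leaf stage (2–18 cm). Greenhouse 12–14 d. Visual rating vs controls, 0 = no effect, 100 = complete control.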

[2] = test system: large crabgrass; test: Test C pre-/postemergence herbicide test; format: in vivo, Digitaria sanguinalis; settings: for Crabgrass, Large plant response rating: 500 g ai/ha
Procedure, shortened: as §1

[3] = test system: velvetleaf; test: Test C pre-/postemergence herbicide test; format: in vivo, Abutilon theophrasti; settings: for Velvetleaf plant response rating: 500 g ai/ha
Procedure, shortened: as §1

[4] = test system: barnyardgrass; test: Test A pre-/postemergence herbicide test; format: in vivo, Echinochloa crus-galli
Procedure, shortened: (§2)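 Visual injury rating on a 0–100 scale (0 no effect, 100 complete control) versus untreated controls, about ten days after treatment in greenhouse. Pre: directed soil spray onto seeded sandy loam. Post: spray to runoff on plants 2–10 cm tall at one- to two-leaf stage.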

[5] = test system: chickweed; test: Test C postemergence herbicide test; format: in vivo, Stellaria media; settings: for Chickweed plant response rating: 500 g ai/ha
Procedure, shortened: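 Greenhouse test with a 12–14 day hold after application and visual comparison with controls. Emerged plants were 1- to 4-leaf stage (2–18 cm) when sprayed postemergence, and the paddy barnyardgrass was at 2 leaves under flooded conditions. 100 = complete control.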

[6] = test system: bermudagrass; test: Test C pre-/postemergence herbicide test; format: in vivo, Cynodon dactylon; settings: for Bermudagrass plant response rating: 500 g ai/ha
Procedure, shortened: as §1

[7] = test system: redroot pigweed; test: Test A pre-/postemergence herbicide test; format: in vivo, Amaranthus retroflexus
Procedure, shortened: as §2

[8] = test system: morningglory; test: Test A pre-/postemergence herbicide test; format: in vivo, Ipomoea spp.
Procedure, shortened: as §2

[9] = test system: ducksalad; test: Test C flooded paddy test; format: in vivo, Heteranthera limosa; settings: for Plant response rating, Ducksalad: visual rating after 12 to 14 days
[10] = 125 g ai/ha, scale 0 (no effect) to 100 (complete control), visual, 12 to 14 days
[11] = 250 g ai/ha, scale 0 to 100 (0 no effect, 100 complete control), visual, 12 to 14 days
[12] = 125 g ai/ha, scale 0 (no effect) to 100 (complete control), visual, 12 to 14 days, preemergence
[13] = 250 g ai/ha, scale 0 to 100 (0 no effect, 100 complete control), visual, 12 to 14 days, preemergence
[14] = Postemergence, 125 g ai/ha, scale 0 to 100, 0 no effect, 100 complete control
[15] = Postemergence, 250 g ai/ha, scale 0 to 100, 0 no effect, 100 complete control
[16] = Preemergence, scale 0 to 100, 0 no effect, 100 complete control
[17] = postemergence, 62 g ai/ha, scale 0 to 100
[18] = Postemergence, 500 g ai/ha, 0 to 100 scale, 0 no effect, 100 complete control
[19] = Postemergence, 2000 g ai/ha, 0 to 100 scale, 0 no effect, 100 complete control
[20] = Preemergence, 500 g ai/ha, visual rating, 0 to 100 scale (0 no effect, 100 complete control)
[21] = Preemergence, 2000 g ai/ha, 0 to 100 scale, 0 no effect, 100 complete control
[22] = 31 g ai/ha, preemergence, scale 0 to 100
[23] = postemergence, 125 g ai/ha, scale 0 to 100
[24] = Preemergence, 2000 g ai/ha, visual rating, 0 to 100 scale (0 no effect, 100 complete control)
[25] = postemergence, 31 g ai/ha, scale 0 to 100

C=CCNC(=O)c1cccc(NC(=O)c2cc(C(C)(C)C)nn2CC)c1 [Compound 46]
Plant response rating (0 = no effect, 100 = complete control), Nightshade [1]: 90 | Plant response rating, Nightshade [1, 10]: 100 | Plant response rating, Nightshade [1, 11]: 100 | Nightshade plant response rating [1]: 100 | Plant response rating (0 = no effect, 100 = complete control), Crabgrass, Large ([2]; 62 g ai/ha, preemergence): 100 | Plant response rating, Crabgrass, Large [2, 12]: 100 | Plant response rating, Crabgrass, Large [2, 13]: 100 | Crabgrass, Large plant response rating ([2]; Postemergence, scale 0 to 100): 90 | Plant response rating, Crabgrass, Large [2, 14]: 90 | Plant response rating, Crabgrass, Large [2, 15]: 90 | Crabgrass, Large plant response rating [2, 16]: 100 | Plant response rating (0 = no effect, 100 = complete control), Velvetleaf ([3]; 62 g ai/ha, preemergence): 90 | Plant response rating, Velvetleaf [3, 12]: 100 | Plant response rating, Velvetleaf [3, 13]: 100 | Velvetleaf plant response rating ([3]; Postemergence, scale 0 to 100): 80 | Plant response rating, Velvetleaf [3, 15]: 80 | Velvetleaf plant response rating [3, 16]: 100 | Plant response rating, Velvetleaf [3, 17]: 50 | Plant response rating, Barnyardgrass [4, 18]: 100 | Plant response rating, Barnyardgrass [4, 19]: 100 | Barnyardgrass plant response rating [4, 20]: 90 | Barnyardgrass plant response rating [4, 21]: 100 | Chickweed plant response rating ([5]; Postemergence, scale 0 to 100): 100 | Plant response rating, Chickweed [5, 14]: 70 | Plant response rating, Chickweed [5, 15]: 80 | Plant response rating, Chickweed [5, 17]: 70 | Plant response rating (0 = no effect, 100 = complete control), Bermudagrass ([6]; 62 g ai/ha, preemergence): 90 | Plant response rating, Bermudagrass [6, 12]: 100 | Plant response rating, Bermudagrass [6, 13]: 100 | Plant response rating, Bermudagrass [6, 14]: 100 | Bermudagrass plant response rating [6, 16]: 100 | Plant response rating, Pigweed [7, 18]: 100 | Plant response rating, Pigweed [7, 19]: 100 | Pigweed plant response rating [7, 20]: 100 | Pigweed plant response rating [7, 21]: 100 | Plant response rating, Morningglory [8, 18]: 40 | Plant response rating, Morningglory [8, 19]: 65 | Morningglory plant response rating [8, 20]: 40 | Morningglory plant response rating [8, 21]: 65

C#CCNC(=O)c1cccc(NC(=O)c2cc(C(C)(C)C)nn2CC)c1 [Compound 47]
Plant response rating (0 = no effect, 100 = complete control), Nightshade [1]: 100 | Plant response rating, Nightshade [1, 10]: 100 | Plant response rating, Nightshade [1, 11]: 100 | Nightshade plant response rating [1]: 100 | Plant response rating (0 = no effect, 100 = complete control), Crabgrass, Large ([2]; 62 g ai/ha, preemergence): 100 | Plant response rating, Crabgrass, Large [2, 12]: 100 | Plant response rating, Crabgrass, Large [2, 13]: 100 | Crabgrass, Large plant response rating ([2]; Postemergence, scale 0 to 100): 90 | Crabgrass, Large plant response rating [2, 16]: 100 | Plant response rating, Crabgrass, Large [2, 17]: 90 | Plant response rating (0 = no effect, 100 = complete control), Velvetleaf ([3]; 62 g ai/ha, preemergence): 40 | Plant response rating, Velvetleaf [3, 12]: 40 | Plant response rating, Velvetleaf [3, 13]: 100 | Velvetleaf plant response rating ([3]; Postemergence, scale 0 to 100): 90 | Plant response rating, Velvetleaf [3, 15]: 80 | Velvetleaf plant response rating [3, 16]: 100 | Plant response rating, Velvetleaf [3, 17]: 80 | Plant response rating, Barnyardgrass [4, 18]: 90 | Plant response rating, Barnyardgrass [4, 19]: 100 | Barnyardgrass plant response rating [4, 20]: 90 | Barnyardgrass plant response rating [4, 21]: 95 | Chickweed plant response rating ([5]; Postemergence, scale 0 to 100): 100 | Plant response rating, Chickweed [5, 14]: 90 | Plant response rating, Chickweed [5, 15]: 90 | Plant response rating, Chickweed [5, 17]: 90 | Plant response rating (0 = no effect, 100 = complete control), Bermudagrass ([6]; 62 g ai/ha, preemergence): 90 | Plant response rating, Bermudagrass [6, 12]: 100 | Plant response rating, Bermudagrass [6, 13]: 100 | Bermudagrass plant response rating ([6]; Postemergence, scale 0 to 100): 60 | Bermudagrass plant response rating [6, 16]: 100 | Plant response rating, Bermudagrass [6, 17]: 60 | Plant response rating, Pigweed [7, 18]: 100 | Plant response rating, Pigweed [7, 19]: 100 | Pigweed plant response rating [7, 20]: 100 | Pigweed plant response rating [7, 21]: 100 | Plant response rating, Morningglory [8, 18]: 20 | Plant response rating, Morningglory [8, 19]: 25 | Morningglory plant response rating [8, 20]: 20 | Morningglory plant response rating [8, 21]: 30 | Ducksalad plant response rating ([9]; 62 g ai/ha, scale 0 to 100 (0 no effect, 100 complete control)): 0 | Ducksalad plant response rating ([9]; 125 g ai/ha, scale of 0 to 100, 0 is no effect, 100 is complete control): 70 | Plant response rating, Ducksalad ([9]; 250 g ai/ha, scale 0 to 100 (0 no effect, 100 complete control)): 80 | Plant response rating, Ducksalad ([9]; 500 g ai/ha, scale 0 to 100 (0 no effect, 100 complete control)): 80

C=Cn1nc(C(C)(C)C)cc1C(=O)Nc1cccc(C(C)=NO)c1 [Compound 114]
Plant response rating, Nightshade ([1]; 31 g ai/ha, scale 0 to 100): 20 | Plant response rating (0 = no effect, 100 = complete control), Nightshade [1]: 70 | Plant response rating, Nightshade [1, 10]: 90 | Plant response rating, Crabgrass, Large [2, 22]: 100 | Plant response rating (0 = no effect, 100 = complete control), Crabgrass, Large ([2]; 62 g ai/ha, preemergence): 100 | Plant response rating, Crabgrass, Large [2, 12]: 100 | Plant response rating, Crabgrass, Large [2, 13]: 100 | Plant response rating, Crabgrass, Large [2, 15]: 100 | Plant response rating, Crabgrass, Large [2, 23]: 100 | Plant response rating, Crabgrass, Large [2, 17]: 20 | Plant response rating, Velvetleaf [3, 22]: 0 | Plant response rating, Velvetleaf [3, 12]: 30 | Plant response rating, Velvetleaf [3, 15]: 80 | Plant response rating, Velvetleaf [3, 23]: 70 | Plant response rating, Velvetleaf [3, 17]: 60 | Barnyardgrass plant response rating [4, 18]: 30 | Plant response rating, Barnyardgrass [4, 19]: 40 | Barnyardgrass plant response rating [4, 20]: 25 | Barnyardgrass plant response rating [4, 24]: 40 | Plant response rating, Chickweed [5, 15]: 100 | Plant response rating, Chickweed [5, 25]: 80 | Plant response rating, Chickweed [5, 17]: 100 | Plant response rating, Bermudagrass [6, 22]: 10 | Plant response rating (0 = no effect, 100 = complete control), Bermudagrass ([6]; 62 g ai/ha, preemergence): 50 | Plant response rating, Bermudagrass [6, 12]: 90 | Plant response rating, Bermudagrass [6, 13]: 100 | Plant response rating, Bermudagrass [6, 15]: 90 | Plant response rating, Bermudagrass [6, 23]: 90 | Plant response rating, Bermudagrass [6, 25]: 20 | Plant response rating, Bermudagrass [6, 17]: 60 | Pigweed plant response rating [7, 18]: 85 | Plant response rating, Pigweed [7, 19]: 100 | Pigweed plant response rating [7, 20]: 85 | Pigweed plant response rating [7, 24]: 90 | Morningglory plant response rating [8, 18]: 10 | Plant response rating, Morningglory [8, 19]: 25 | Morningglory plant response rating [8, 20]: 35 | Morningglory plant response rating [8, 24]: 70

CCn1nc(C(C)(C)C)cc1C(=O)Nc1cccc(SC(F)(F)F)c1 [Compound 130]
Plant response rating (0 = no effect, 100 = complete control), Nightshade [1]: 30 | Nightshade plant response rating [1]: 60 | Plant response rating, Crabgrass, Large [2, 12]: 90 | Plant response rating, Crabgrass, Large [2, 13]: 95 | Crabgrass, Large plant response rating ([2]; Postemergence, scale 0 to 100): 90 | Plant response rating, Crabgrass, Large [2, 15]: 20 | Crabgrass, Large plant response rating [2, 16]: 95 | Plant response rating, Velvetleaf [3, 12]: 10 | Velvetleaf plant response rating ([3]; Postemergence, scale 0 to 100): 85 | Plant response rating, Velvetleaf [3, 15]: 40 | Velvetleaf plant response rating [3, 16]: 100 | Plant response rating, Velvetleaf [3, 23]: 30 | Barnyardgrass plant response rating [4, 18]: 20 | Plant response rating, Barnyardgrass [4, 19]: 20 | Barnyardgrass plant response rating [4, 20]: 40 | Barnyardgrass plant response rating [4, 24]: 30 | Chickweed plant response rating ([5]; Postemergence, scale 0 to 100): 100 | Plant response rating, Chickweed [5, 15]: 100 | Plant response rating, Chickweed [5, 23]: 100 | Plant response rating (0 = no effect, 100 = complete control), Bermudagrass ([6]; 62 g ai/ha, preemergence): 60 | Plant response rating, Bermudagrass [6, 12]: 90 | Plant response rating, Bermudagrass [6, 13]: 100 | Bermudagrass plant response rating ([6]; Postemergence, scale 0 to 100): 90 | Plant response rating, Bermudagrass [6, 15]: 90 | Bermudagrass plant response rating [6, 16]: 100 | Plant response rating, Bermudagrass [6, 23]: 85 | Pigweed plant response rating [7, 18]: 50 | Plant response rating, Pigweed [7, 19]: 65 | Pigweed plant response rating [7, 24]: 65 | Pigweed plant response rating ([7]; preemergence, 500 g ai/ha, visual injury, 0 to 100 scale (0 no effect, 100 complete control)): 35 | Morningglory plant response rating [8, 18]: 20 | Plant response rating, Morningglory [8, 19]: 25 | Morningglory plant response rating [8, 20]: 10 | Morningglory plant response rating [8, 24]: 15
